Reference: publication PMC8514580, “Insight into the interaction between the RNA helicase CGH-1 and EDC-3 and its implications” (Scientific Reports, 2021)
Residue numbers refer to the chain shown, from its start. No end group written: not given here.

How the values were obtained:
CGH-1_248-420^K277A = target: T1, CGH-1_248-420^K277A (Caenorhabditis elegans, UniProt Q95YF3, K277A); format: binding, C. elegans; settings: ITC, 20 °C
T1 construct: the cDNA fragments encoding CGH-1 RecA2 (residues 248–420); made in house; host or cells: E. coli Gold (DE3)
Protocol: (§1) Expression plasmids regarding CGH-1 and CAR-1 were constructed as previously described. In brief, the cDNA fragments encoding CGH-1 RecA2 (residues 248–420), CAR-1 FDF-TFG (residues 184–268) were amplified by PCR from C. elegans genome library and cloned into the NdeI and XhoI site of a modified pET-28a (Novagen) vector (p28a), in which a thrombin protease cleavage site was removed.
(§2) CGH-1 protein expression and purification were performed described as in our most recent paper. In brief, proteins were expressed in E. coli Gold (DE3) strain (Novagen). […] Cells were resuspended in Buffer A (20 mM Tris–HCl, pH 7.5, 1 M NaCl), and then lysed using high pressure at 4 °C. Proteins were initially purified by Ni-chelating resin (Qiagen), and further purified by size exclusion chromatography (SEC) on a Superdex 75 column (GE healthcare) in Buffer A. The purified proteins were dialyzed into Buffer B (20 mM Tris–HCl, pH 7.5, 150 mM NaCl).
(§3) A peptide containing the C. elegans EDC-3 FDF fragment (residues 235–271) and PATR-1 fragment (residues 30–67) were synthesized from GL Biochem (Shanghai, China) Co., Ltd, respectively. Stock solutions of peptide were prepared in Buffer B described above, and were adjusted to pH 7.5 ± 0.02 for subsequent experiments.
(§4) ITC assays were performed as previously described. In brief, it was carried out on a MicroCal PEAQ-ITC (Malvern) at 20 °C with the following settings: reference power, 5 μcal/s; initial delay, 60 s; stir speed, 750 rpm; spacing time, 120 s. Proteins (or its mutants) and peptides were adjusted to 0.05 mM and 0.5 mM, respectively. Experiments were initialed by injection of 1 μl each of peptide into the sample cell (200 μl) filled with protein (or its mutants) solution, followed by 18 injections of 2 μl. The ITC data were fitted with a one-binding-site model using the Origin analysis software.

CGH-1_248-420^F261A = target: T2, CGH-1_248-420^F261A (Caenorhabditis elegans, UniProt Q95YF3, F261A); format: binding, C. elegans; settings: ITC, 20 °C, pH 7.5, 150 mM NaCl; CGH-1 F261A
T2 construct: the cDNA fragments encoding CGH-1 RecA2 (residues 248–420); made in house; host or cells: E. coli Gold (DE3)
Protocol: as §1, §2, §3, §4

CGH-1_248-420^R393A = target: T3, CGH-1_248-420^R393A (Caenorhabditis elegans, UniProt Q95YF3, R393A); format: binding, C. elegans; settings: ITC, 20 °C
T3 construct: the cDNA fragments encoding CGH-1 RecA2 (residues 248–420); made in house; host or cells: E. coli Gold (DE3)
Protocol: as §1, §2, §3, §4

CGH-1_248-420^Q266A = target: T4, CGH-1_248-420^Q266A (Caenorhabditis elegans, UniProt Q95YF3, Q266A); assay: ITC binding to CGH-1_248–420 Q266A; set-up: species or system C. elegans; settings: 20 °C, pH 7.5, 150 mM NaCl, CGH-1 Q266A
T4 construct: the cDNA fragments encoding CGH-1 RecA2 (residues 248–420); made in house; host or cells: E. coli Gold (DE3)
Protocol: as §1, §2, §3
(§5) ITC assays were performed as previously described. […]

CGH-1_248-420^H269A = target: T5, CGH-1_248-420^H269A (Caenorhabditis elegans, UniProt Q95YF3, H269A); assay: ITC binding to CGH-1_248–420 H269A; set-up: species or system C. elegans; settings: 20 °C, pH 7.5, 150 mM NaCl, CGH-1 H269A
T5 construct: the cDNA fragments encoding CGH-1 RecA2 (residues 248–420); made in house; host or cells: E. coli Gold (DE3)
Protocol: as §1, §2, §3, §5

CGH-1_248-420^K277E = target: T6, CGH-1_248-420^K277E (Caenorhabditis elegans, UniProt Q95YF3, K277E); assay: ITC binding to CGH-1_248–420 K277E; set-up: species or system C. elegans; settings: 20 °C
T6 construct: the cDNA fragments encoding CGH-1 RecA2 (residues 248–420); made in house; host or cells: E. coli Gold (DE3)
Protocol: as §1, §2, §3, §5

CGH-1_248–420 mutants = assay: ITC binding to several CGH-1_248–420 single mutants; set-up: species or system C. elegans; settings: substitution of each of Phe261, Gln266, His269 with Ala
Protocol: as §1, §2, §3, §5

CGH-1_248-420^4A = target: T7, CGH-1_248-420^4A (Caenorhabditis elegans, UniProt Q95YF3, C270A/H269A/L274A/T273A); assay: ITC binding to CGH-1_248–420 4A (H269A, C270A, T273A, L274A); set-up: species or system C. elegans; settings: CGH-1 4A vs WT
T7 construct: the cDNA fragments encoding CGH-1 RecA2 (residues 248–420); made in house; host or cells: E. coli Gold (DE3)
T7 sequence (Q95YF3 248-420 H269A/C270A/T273A/L274A limits assumed): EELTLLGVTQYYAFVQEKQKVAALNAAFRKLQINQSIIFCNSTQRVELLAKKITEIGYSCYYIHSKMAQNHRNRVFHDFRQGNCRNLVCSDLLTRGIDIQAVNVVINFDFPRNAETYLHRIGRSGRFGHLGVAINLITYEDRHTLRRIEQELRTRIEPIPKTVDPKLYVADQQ
Protocol: as §1, §2, §3, §4

CGH-1_248-420^E396A = target: T8, CGH-1_248-420^E396A (Caenorhabditis elegans, UniProt Q95YF3, E396A); assay: ITC binding to CGH-1_248–420 E396A; set-up: species or system C. elegans; settings: 20 °C
T8 construct: the cDNA fragments encoding CGH-1 RecA2 (residues 248–420); made in house; host or cells: E. coli Gold (DE3)
Protocol: as §1, §2, §3, §5

CGH-1_248-420^WT = target: T9, CGH-1_248-420^WT (Caenorhabditis elegans, UniProt Q95YF3); assay: ITC binding to CGH-1_248–420 WT; set-up: species or system C. elegans
T9 construct: the cDNA fragments encoding CGH-1 RecA2 (residues 248–420); made in house; host or cells: E. coli Gold (DE3)
T9 sequence (Q95YF3 248-420): T7 sequence (Q95YF3 248-420 H269A/C270A/T273A/L274A limits assumed) with A22H, A23C, A26T, A27L
Protocol: as §1, §2, §3, §4

CGH-1_248-420^F355A = CGH-1_248-420^F355A (Caenorhabditis elegans, UniProt Q95YF3, F355A); set-up: the cDNA fragments encoding CGH-1 RecA2 (residues 248–420); made in house; host or cells: E. coli Gold (DE3); settings: ITC, CGH-1 F355A vs WT; cited from earlier work
Source text: We recently identified a highly conserved FDF (Phe-Asp-Phe) motif between beta-strand 12 and alpha-helix 13 in CGH-1 RecA2 domain but the function is currently unclear (Fig. 1B)[17]. Mechanistically, Phe355 in CGH-1 may mediate hydrophobic interaction with Thr266 in the TFG motif of CAR-1 and a mutation of Phe355 to Ala (F355A) in CGH-1 decreased the binding affinity by a factor of approximate 5 as measured by ITC assay. Since PATR-1N-terminus has also a TFG motif, we hypothesize that PATR-1 may also interact with CGH-1 via similar binding mechanism (Supplementary Fig. S3B and C). Striking ...

T8 sequence (Q95YF3 248-420 E396A): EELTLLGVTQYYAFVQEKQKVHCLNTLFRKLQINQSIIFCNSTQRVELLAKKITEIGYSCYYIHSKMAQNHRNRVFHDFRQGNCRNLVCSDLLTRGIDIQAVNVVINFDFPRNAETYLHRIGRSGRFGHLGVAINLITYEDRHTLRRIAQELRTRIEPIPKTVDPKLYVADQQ
T6 sequence (Q95YF3 248-420 K277E): as the sequence (Q95YF3 248-420 E396A) above, with K30E, A149E counted along it
T3 sequence (Q95YF3 248-420 R393A): as the sequence (Q95YF3 248-420 E396A) above, with R146A, A149E counted along it
T1 sequence (Q95YF3 248-420 K277A): as the sequence (Q95YF3 248-420 E396A) above, with K30A, A149E counted along it
CGH-1_248-420^F355A, sequence (Q95YF3 248-420 F355A): as the sequence (Q95YF3 248-420 E396A) above, with F108A, A149E counted along it
T2 sequence (Q95YF3 248-420 F261A): as the sequence (Q95YF3 248-420 E396A) above, with F14A, A149E counted along it
T4 sequence (Q95YF3 248-420 Q266A): as the sequence (Q95YF3 248-420 E396A) above, with Q19A, A149E counted along it
T5 sequence (Q95YF3 248-420 H269A): as the sequence (Q95YF3 248-420 E396A) above, with H22A, A149E counted along it

LADPIDFDLDSDFDFAENLKLFEKDENDDQYYETVEK [EDC-3_235–271]
− TΔS (CGH-1_248-420^K277A; pH 7.5, 150 mM NaCl, CGH-1 K277A): 7.74 kcal/mol
KD(mut) / KD(wt) (CGH-1_248-420^K277A; CGH-1 K277A vs WT): ~ 8.1
− TΔS (CGH-1_248-420^F261A): 6.17 kcal/mol
− TΔS (CGH-1_248-420^R393A; pH 7.5, 150 mM NaCl, CGH-1 R393A): 9.68 kcal/mol
KD(mut) / KD(wt) (CGH-1_248-420^R393A; CGH-1 R393A vs WT): ~ 6.1
− TΔS (CGH-1_248-420^Q266A): 4.34 kcal/mol
− TΔS (CGH-1_248-420^H269A): 4.97 kcal/mol
KD(mut) / KD(wt) (CGH-1_248-420^K277E; CGH-1 K277E vs WT): ~ 17.5
− TΔS (CGH-1_248-420^K277E; pH 7.5, 150 mM NaCl, CGH-1 K277E): 4.48 kcal/mol
weakening of binding affinity, factor vs WT (CGH-1_248–420 mutants): 3.4–7.5
KD(mut) / KD(wt) (CGH-1_248-420^4A; 20 °C): ~ 25.7
binding affinity compared to wildtype (in words) (CGH-1_248-420^4A): dramatically impaired the binding affinity
binding affinity compared to wildtype (in words) (CGH-1_248-420^4A; listed as EDC-3 peptide): dramatically disrupted the interaction
KD(mut) / KD(wt) (CGH-1_248-420^E396A; CGH-1 E396A vs WT): ~ 2.5
− TΔS (CGH-1_248-420^E396A; pH 7.5, 150 mM NaCl, CGH-1 E396A): 7.92 kcal/mol
Kd (CGH-1_248-420^WT): 340 ± 20 nM
− TΔS (CGH-1_248-420^WT; ITC, 20 °C, pH 7.5, 150 mM NaCl, CGH-1_248–420 WT): 8.94 kcal/mol
binding affinity of EDC-3 FDF-FEK motif relative to corresponding region of CAR-1 (by KD) (CGH-1_248-420^WT; ITC, CGH-1_248–420, 0.34 μM (this work) vs 43 μM (ref 17)): > 126 times
binding affinity relative to CAR-1_184–268 (by KD) (CGH-1_248-420^WT; ITC, CGH-1_248–420 WT, 0.34 μM vs 3.03 μM): approximately ninefold stronger

B1: CAR-1: CAR-1, construct of ref 17; TFG motif interacts with Phe355 of CGH-1 (protein, UniProt Q9XW17 1-340, looked up)
Protein LSM14 homolog car-1: MSNQTPYIGSKISLISKLDIRYEGILYTVDTNDSTIALAKVRSFGTEKRPTANPVAARDDVYEYIIFKASDIKDLIVCDTPKMANIGGGLPYDPAIISVSSRSAPASDGAPAASAGSSRAGTPSRNSPLGQIIQNQRPGRGGYQQNFQANRGYNNYRGGFAGGYNNQRGHNNYGVPRVNHREKLKFESDFDFEKANEKFQEVLVDNLEKLNIEDKAEPEVEEKKDAAFYDKKTSFFDNISCESLEKAEGKTGRPDWKKERETNQETFGHNAVRSLNYRRGFGGRGRGGNRGYGGYNNGYQHQHQHRGGYNGGYRQNNGGYRRGGYAPRDNQGNTAAAAEQ
decrease of binding affinity, factor vs WT (CGH-1_248-420^F355A): ~5
